Experimental data published in patent US12344599B2, “Prodigiosin analogs and methods of use” (Institute For Cancer Research, priority 2016, dated 2025).
pIC50: −log10 of the molar value.

Tests used:
CAL-27 = assay: CellTiterGlo cell viability assay, CAL-27; type: cell-based; settings: Homo sapiens; CAL-27, head & neck squamous cell carcinoma, p53 H193L, 72 hours
Description: (§1) • 1) Cell lines: HT29, SW480, DLD-1, HCT116, and p53-null HCT116 cells, H1975, MDA-MD-231, U251, FaDu, CAL-27, PANC-1, Aspc-1, and MRC5 were obtained from the ATCC and cultured as recommended. Cells were regularly authenticated by bioluminescence, growth, and morphologic observation. The cells were routinely examined for Mycoplasma and all cell lines underwent STR authentication. • 2) Western blotting: After treatment, protein lysates were collected for Western blot analysis. 15 μg of protein was used for SDS-PAGE. After primary and secondary antibody incubations, the signal was detected by chemiluminescent detection kit, imaged by Syngene (Imgen Technologies). […] The cell viability was assessed by CellTiterGlo bioluminescent cell proliferation assay (Promega), following the manufacturer's protocol. Bioluminescence imaging was measured using the IVIS imager. Percentage of cell viability (mean±SEM) at each dose was calculated against the respective DMSO control. The IC50 values were determined from the sigmoidal dose-response curves using GraphPad Prims4. • 4) Caspase activity assay: Cells were seeded in 96-well plate (1×10^4 cells/well). […] The caspase 3/7 activity was assessed by Caspase-Glo® 3/7 Assay kit (Promega), following the manufacturer's protocol. Bioluminescence imaging was measured using the IVIS imager. […]

[1] = system: p53 target genes in HT29 cells; assay: RNA-Seq gene profiling with IPA analysis; type: cell-based, human; settings: HT29, 1 μM for 24 hours
Description: Having confirmed that PG3-Oc induces apoptosis in multiple p53-expressing mutant cancer cell lines, whether this small molecule restored p53 pathway signaling was investigated in HT29 cells after treatment with 1 μM PG3-Oc for 24 hours. For this purpose, gene profiling was performed by RNA-Seq and bioinformatics analysis, such as IPA (Ingenuity pathway analysis), GSEA (gene set enrichment analysis) and GO (gene ontology) (See details at Methods and Materials). […] Key p53 target gene CDKN1A (p21) that negatively regulate cell cycle and other p53 target genes that regulate apoptosis such as, TNFRSF10B (DR5), BBC3 (PUMA), BIRC5 (Survivin), TP53INP1 (Teap) were identified in canonical p53 pathway analysis. […] To verify that the behavior of regulation of p53 target genes by PG3-Oc is similar to p53 protein, based on published data (Fischer, Oncogene, 2017, 36(28), 3943-3956), genes directly repressed (FIG. 89) and activated (FIG. 90) by the p53 transcription factor were selected. […] This implicates that PG3-Oc is able to restore the p53 pathway.

SW480 = assay: CellTiterGlo cell viability assay, SW480; type: cell-based; settings: Homo sapiens; SW480, colorectal cancer, p53 R273, P309S, 72 hours
Description: as §1

MDA-MB-468 = assay: CellTiterGlo cell viability assay, MDA-MB-468; type: cell-based; settings: Homo sapiens; MDA-MB-468, breast cancer, p53 R273H, 72 hours
H1975 = assay: CellTiterGlo cell viability assay, H1975; type: cell-based; settings: Homo sapiens, NCI-H1975; H1975, NSCLC, p53 R273H, 72 hours
Description: as §1

ASPC-1 = assay: CellTiterGlo cell viability assay, ASPC-1; type: cell-based; settings: Homo sapiens, ASPC1; ASPC-1, pancreatic cancer, p53 frameshift, 72 hours
Description: as §1

HT29 cells = assay: Western blot of apoptosis markers and PUMA, HT29; type: cell-based, human
Description: as §1

DLD1 = assay: CellTiterGlo cell viability assay, DLD1; type: cell-based; settings: Homo sapiens, DLD-1; DLD1, colorectal cancer, p53 S241F, 72 hours
Description: as §1

p53-target genes = assay: Western blotting of p53-target genes (Example 1); type: cell-based, human
Description: After treatment, protein lysates were collected for Western blot analysis. Twenty-five micrograms of protein were used for SDS-PAGE. After primary and secondary antibody incubations, the signal was detected with a chemiluminescent detection kit, followed by autoradiography or Syngen. […] In FIG. 10, p53-null HCT116 cells were treated with P01 and P306, alone or in combination with SiCon or SiTAp73, in various concentrations for 6 hours, and tested for p73 (C.S.), p73 (Bethyl), P63-α, p53, DR5, Puma, P21, and Ran proteins.

## CCCCCCCCOC(=O)CCc1c(C)[nH]c(/C=C2\N=C(c3ccc[nH]3)C=C2OC)c1C [PG3-Oc, Octyl (Z)-3-(5-((4′-methoxy-1H,5′H-[2,2′-bipyrrol]-5′-ylidene)methyl)-2,4-dimethyl-1H-pyrrol-3-yl)propanoate]
CAL-27
  pIC50: 7.47
[1]
  PMAIP1 (Noxa) increase as compared to control: 1.9 fold
SW480
  pIC50: 7.02
MDA-MB-468
  pIC50: 7.01
H1975
  pIC50: 6.72
ASPC-1
  pIC50: 7.41
HT29 cells; HT29, time-course
  time at which PUMA protein was first induced post treatment: 16 h
HT29 cells; western blot
  concentration sufficient to activate cleaved caspase-8 and -3 and cleaved-PARP: 0.5 µM
DLD1
  pIC50: 7.27
p53-target genes
  expression of p53-target genes: induced mutant p53 and ΔNp73 degradation and the expression of p53-target genes
